This note sets out measurements from patent US20100048536A1, “Novel Substituted Diaryl Azepine Derivatives as Integrin Ligands” (priority 2000, published 2010).

This assay has as its target T1, integrin αvβ3 (Homo sapiens, UniProt P05106+P06756).
T1 construct: from tissue; host or cells: human placenta
Put plainly: Integrin αvβ3 assay (competition with vitronectin for binding to solid phase-bound integrin αvβ3). The note with it: integrin αvβ3 from human placenta, qualitative ranking only. The protocol: For the identification and assessment of integrin αvβ3 ligands, a test system was used which was based on competition between the natural integrin αvβ3 ligand vitronectin and the test substance for binding to solid phase-bound integrin αvβ3
• Microtiter plates coated with 250 ng/ml of integrin αvβ3 in 0.05 M NaHCO3 pH 9.2; 0.1 ml/well; • saturation with 1% powdered milk/assay buffer; 0.3 ml/well; 0.5 h/RT • 3× washing with 0.05% Tween 20/assay buffer • test substance in 0.1% powdered milk/assay buffer, 50 μl/well+0 μg/ml or 2 μg/ml of human vitronectin (Boehringer Ingelheim T007) in 0.1% powdered milk/assay buffer, 50 μl/well; 1 h/RT • 3× washing with 0.05% Tween 20/assay buffer • 1 μg/ml of anti human vitronectin antibody coupled to peroxidase (Kordia SAVN-APHRP) in 0.1% powdered milk/assay buffer; 0.1 ml/well; 1 h/RT • 3× washing with 0.05% Tween 20/assay buffer • 0.1 ml/well of peroxidase substrate • stop reaction with 0.1 ml/well of 2 M H2SO4 • measurement of the absorption at 450 nm
Integrin αvβ3: Human placenta is solubilized with Nonidet and integrin αvβ3 affinity-purified on a GRGDSPK matrix (elution with EDTA). Impurities due to integrin αIIbβ3 and human serum albumin, and the detergent and EDTA are removed by anion-exchange chromatography. […]

As for `CN1C(=O)c2ccccc2C(CC(=O)O)c2ccc(OCCCCNc3ccccn3)cc21` (stereo not shown) [Example I, {5-Methyl-6-oxo-3-{4-(2-pyridinylamino)-butoxy]-6,11-dihydro 5H-dibenzo[b,e]azepin-11-yl}acetic acid], the “IC50 values (concentration of the ligand at which 50% of the ligand is displaced)” value is given as “best result”.
